Laboratory results published in US8791126B2, “2-alkynyl-N9-propargyladenine and medicinal use thereof” (Yamasa Corporation, priority 2010, dated 2014).

What was measured:
[1] = system: haloperidol-induced catalepsy; assay: Haloperidol-induced catalepsy; format: in vivo; details: male ddY mice, haloperidol 1 mg/kg i.p., compound oral 0.03-10 mg/kg 1 hour later, scored 1, 3, 5, 7 hours; FIGS. 2-4
Protocol: Haloperidol is known to block dopamine receptors. This method is used generally as a method of evaluating the therapeutic effect of the therapeutic agents for Parkinson's syndrome, by using the effect of inducing catalepsy (when being made to take a certain posture or position of the limbs extrinsically, continuing to keep the posture as it is without willing to change it by oneself) caused by administration of haloperidol. The experiment was conducted by using 7 male ddY mice, 5-weeks old, per group. Haloperidol was suspended in 0.5% CMC, and then administered intraperitoneally to the mice at 1 mg/kg. In the study, as a test compound, the compounds each represented by the formula (4), the formula (5), the formula (10), the formula (11), the formula (12), the formula (13), or the formula (14) in the above synthesis examples were used, and as a positive control, KW-6002 (the test compound and KW-6002 were 0.03, 0.1, 0.3, 1, 3, 10 mg/kg) or L-DOPA (100 mg/kg)+benserazide (25 mg/kg) was used. The above 4 compounds were each suspended in 0.5% CMC, and orally administered to the mice 1 hour after the haloperidol administration. In addition, the case where only CMC was administered was designated as a control for the whole. After a lapse of 1, 3, 5, and 7 hours from the administration of the test compound, both forelimbs only, or both hindlimbs only, of a mouse were put in turn on an acrylic stand, height 4.5 cm, width 1.0 cm, and catalepsy was determined, and the state was scored as Table 2 below. [table]

[2] = Photostability study in solid state; format: physicochemical; details: under a fluorescent light for 3 weeks, HPLC
Protocol: Of the compounds of the present invention, the formula (4) compound, the formula (10) compound, and the formula (11) compound were evaluated for their photostability in solid state.
The study was conducted in accordance with “Guideline for the Photostability Testing of New Drug Substances and Products.” That is, each compound in solid state was placed under a fluorescent light statically for 3 weeks, and the residual ratio was calculated from the HPLC analysis results before and after the placement.

adenosine A2a receptor = target: T1, adenosine A2a receptor (Rattus norvegicus, UniProt P30543); assay: Adenosine A2a receptor antagonist activity by the Magnus method (excised femoral vein); format: cell-based; details: femoral vein of male Wistar rats, contracted with 10^−5 M serotonin, relaxed with 10^−7 M 2-octynyladenosine; FIG. 1
T1 construct: the femoral vein was excised from male Wistar rats; from tissue; host or cells: femoral vein of male Wistar rats
Protocol: In order to clarify the adenosine A2a receptor antagonist activity of the compound of the present invention, an evaluation by the Magnus method was conducted. The Magnus method is a method of evaluating the action of drugs using muscle contraction/relaxation as an index, and is used generally as a method for determining the antagonist activity.
In the evaluation, firstly, the femoral vein was excised from male Wistar rats. A Krebs-Henseleit solution aerated with O2 gas was filled in an organ bath and kept at 37° C., and the excised femoral vein was suspended therein under 0.5 g of resting tension. The contractile and relaxing response was determined via a pickup transducer.
In order to check the reactivity of the compound, firstly, the test compound was added dropwise in the organ bath. 10 minutes after the dropwise addition, serotonin was added dropwise in the organ bath such that the concentration thereof was 10^−5 M, to make the femoral vein contract. In a state where the contractile response was stable, 10^−7 M of an adenosine A2a receptor agonist, 2-octynyladenosine was administered to induce the relaxing response, and the inhibitory effect of the compound of the present invention and a positive control on the relaxing response was evaluated. Note that, in the representation of the results, the degree of the contraction at the time of addition of each substance was calculated, on condition that the degree of the relaxation when the compound of the present invention and the positive control were not added dropwise at all was designated as a control for the whole, and the degree of the relaxation for the control for the whole was set to be 100%.
As a compound of the present invention, the formula (3) compound, the formula (4) compound, the formula (5) compound, the formula (9) compound, and the formula (10) compound, which were described in the synthesis examples, were used. Note that the formula (9) compound is a publicly-known compound which has already been described in Patent Literature 2. In addition, as a positive control, 8-[(E)-2-(3,4-dimethoxyphenyl)vinyl]-1,3-diethyl-7-methyl-3,7-dihydro-1H-purin-2,6-dione (KW-6002) described in Patent Literature 1, which is an adenosine A2a receptor antagonist which has conventionally been deemed to have an effect on the treatment of Parkinson's syndrome, and the compound of the following formula (hereinafter referred to as “AT-compound”), which is shown in Patent Literature 3, compound No. 9 in [Table A], were used.

[3] = system: 6-OHDA-induced unilaterally substantia nigra lesioned rats; assay: 6-OHDA-induced unilaterally substantia nigra lesioned rats, contralateral rotation; format: in vivo, rat; details: oral, administered singly, observed 5 hours, versus KW-6002; FIGS. 5-7
Protocol: 6-Hydroxydopamine (6-OHDA) is taken into neurons by dopamine reuptake transporters and acts as a neurotoxin, and is used for the selective denaturation and removal of dopaminergic neurons. This 6-OHDA was locally administered to the corpus striatum to induce the cell death of dopaminergic nerve and reduce dopamine, and thereby induce the symptoms of Parkinson's syndrome. In the study, 6-OHDA was injected into the right ventral tegmental area of male SD rats, 8-weeks old, and after 4 weeks, apomorphine (5 mg/kg, s.c.) was administered, and the animals which had shown a certain count of the counterclockwise rotation were selected. Using the model rats, the evaluation of the test compound as a therapeutic agent for Parkinson's syndrome was commenced.
Male SD rats, 8-weeks old, were anesthetized with pentobarbital (50 mg/kg), and the hairs were removed broadly from the occiput through the back of the neck, and then an ear bar was attached thereto, and the rats were fixed in a brain stereotaxic apparatus. The skin of the head was incised 3 to 4 cm with a scalpel, the periosteum was stripped off to expose the skull and the suture was checked. […] 4 weeks after the 6-OHDA administration, apomorphine (5 mg/kg, s.c.) was administered, and the count of the counterclockwise rotation for 5 minutes was counted from 5 minutes after the administration. […]

[4] = target: human adenosine A2a receptor (Homo sapiens, UniProt P29274); assay: Binding assay to human adenosine A2a receptor
human adenosine A2a receptor, sequence (P29274 whole entry): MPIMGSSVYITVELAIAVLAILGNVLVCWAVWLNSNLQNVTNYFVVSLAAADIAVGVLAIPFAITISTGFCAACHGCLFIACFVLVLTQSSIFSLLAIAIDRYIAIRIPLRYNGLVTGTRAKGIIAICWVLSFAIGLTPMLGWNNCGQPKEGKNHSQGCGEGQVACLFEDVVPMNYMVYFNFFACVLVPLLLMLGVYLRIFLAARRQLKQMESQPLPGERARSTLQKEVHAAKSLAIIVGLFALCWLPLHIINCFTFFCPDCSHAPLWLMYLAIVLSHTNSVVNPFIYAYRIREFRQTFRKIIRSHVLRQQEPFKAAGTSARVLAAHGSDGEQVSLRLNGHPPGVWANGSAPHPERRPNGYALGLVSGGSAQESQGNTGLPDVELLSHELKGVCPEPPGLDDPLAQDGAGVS
Protocol: In order to clarify the binding affinity of the compound of the present invention to a human adenosine A2a receptor, a binding assay for the human receptor and the compound of the present invention was conducted.

T1 sequence (P30543 whole entry): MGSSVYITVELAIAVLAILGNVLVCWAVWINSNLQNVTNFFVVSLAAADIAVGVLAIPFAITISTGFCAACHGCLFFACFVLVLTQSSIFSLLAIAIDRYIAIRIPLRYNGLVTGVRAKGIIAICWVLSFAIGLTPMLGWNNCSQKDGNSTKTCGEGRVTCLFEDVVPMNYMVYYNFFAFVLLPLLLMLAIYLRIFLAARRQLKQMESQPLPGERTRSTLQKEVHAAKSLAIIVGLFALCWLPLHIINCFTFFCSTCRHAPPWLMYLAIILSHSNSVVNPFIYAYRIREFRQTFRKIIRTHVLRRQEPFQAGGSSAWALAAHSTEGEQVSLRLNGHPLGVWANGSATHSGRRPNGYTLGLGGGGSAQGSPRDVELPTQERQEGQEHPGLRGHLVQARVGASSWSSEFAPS

Row | Compound | residual ratio [2] [%] | inhibition of the relaxing response of the femoral vein (adenosine A2a receptor antagonist activity) (adenosine A2a receptor) | Ki [4] [nM] | score of catalepsy (improving effect on haloperidol-induced catalepsy) [1] | count of the contralateral rotation [3]
1 | C#CCn1c(Cl)nc2c(N)nc(C#CC3(O)CCCCC3)nc21 [formula (13) compound, 8-chloro-2-[2-(1-hydroxycyclohexyl)-1-ethyn-1-yl]-N^9-propargyladenine] |  |  |  | exhibit an effect for a long time, with a smaller dose than that of the positive control KW-6002 | 
2 | C#CCn1c(-n2nccn2)nc2c(N)nc(C#CCCCCCC)nc21 [formula (14) compound, 8-(1,2,3-triazol-2-yl)-2-(1-octynyl)-N^9-propargyladenine] |  |  |  | exhibit an effect for a long time, with a smaller dose than that of the positive control KW-6002 | 
3 | C#CCn1c(Br)nc2c(N)nc(C#CC3(O)CCCCC3)nc21 [formula (10) compound, 8-bromo-2-[2-(1-hydroxycyclohexyl)-1-ethyn-1-yl]-N^9-propargyladenine] | 98.8 | more potent activity |  | kept the score of catalepsy low, with a smaller dose than that of KW-6002 | exhibit an effect which is stronger and continuously increase the count of the contralateral rotation
4 | C#CCn1c(Cl)nc2c(N)nc(C#CCCCCCC)nc21 [formula (12) compound, 8-chloro-2-(1-octynyl)-N^9-propargyladenine] |  |  |  | exhibit an effect for a long time, with a smaller dose than that of the positive control KW-6002 | 
5 | C#CCn1cnc2c(N)nc(C#CCC3CCN(C(=O)Oc4ccc(C(=O)OC)cc4)CC3)nc21 [AT-compound, reference compound] |  | no potent activity |  |  | 

Second part, led by results:

Row | residual ratio [2] [%] | inhibition of the relaxing response of the femoral vein (adenosine A2a receptor antagonist activity) (adenosine A2a receptor) | Ki [4] [nM] | Compound | score of catalepsy (improving effect on haloperidol-induced catalepsy) [1] | count of the contralateral rotation [3]
6 | 100.2 |  |  | C#CCn1c(-c2ccco2)nc2c(N)nc(C#CC3(O)CCCCC3)nc21 [formula (11) compound, 8-(2-furyl)-2-[2-(1-hydroxycyclohexyl)-1-ethyn-1-yl]-N^9-propargyladenine] | exhibit an effect for a long time, with a smaller dose than that of the positive control KW-6002 | 
7 |  | more potent activity |  | C#CCn1c(-c2ccco2)nc2c(N)nc(C#CCCCCCC)nc21 [formula (5) compound, 8-(2-furyl)-2-(1-octyn-1-yl)-N^9-propargyl-adenine] | the catalepsy score was also kept low compared with that of L-DOPA or the formula (4) compound | 
8 | 99.0 | more potent activity | 0.581 | C#CCn1c(Br)nc2c(N)nc(C#CCCCCCC)nc21 [formula (4) compound, 8-bromo-2-(1-octyn-1-yl)-N^9-propargyladenine] | kept the score of catalepsy low, with a smaller dose than that of KW-6002 | exhibit an effect which is stronger and continuously increase the count of the contralateral rotation
